Reference: PubChem BioAssay (NCI)
Several values for one entry are separate records, joined by “and”; a condition that tells them apart may be missing. Equal values may be shown once.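 In this assay, cells in 96-well plates receive the compound at five concentrations for 48 hours. Endpoints are linearly interpolated between the surrounding concentrations. GI50 marks 50% less growth. TGI: concentration producing complete growth inhibition.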

Tests used:
Assay in all cases: NCI-60 cell line screen, 48 h
[1] = tested on: PC-3 prostate
[2] = tested on: LOX IMVI melanoma
[3] = tested on: CCRF-CEM leukemia
[4] = tested on: DU-145 prostate
[5] = tested on: SF-295 CNS
[6] = tested on: HL-60(TB) leukemia
[7] = tested on: HOP-62 NSCLC
[8] = tested on: OVCAR-8 ovarian
[9] = tested on: HS 578T breast
[10] = tested on: CAKI-1 renal

SMILES | GI50 [1] | TGI [1] | GI50 [2] | TGI [2] | GI50 [3] | TGI [3] | GI50 [4] | TGI [4] | TGI [5] | GI50 [6] | TGI [6] | GI50 [7] | TGI [7] | GI50 [8] | TGI [8] | GI50 [9] | TGI [9] | GI50 [10] | TGI [10] | GI50 [5]
O=C(NCCCc1cn[nH]c1)c1ccc(-c2ccncc2)c(C#Cc2ccc(F)cc2)c1 | < 0.01 µM | 76.8 µM | 0.913 µM | 53.6 µM | < 0.01 µM | > 100 µM | < 0.01 µM | > 100 µM | 47.9 µM | 1.85 µM | 14.6 µM | 5.49 µM | > 64.9 µM | < 0.01 µM | > 100 µM | 18.9 µM | > 100 µM | 6.92 µM | > 100 µM | 
COC(=O)Nc1nc2ccccc2[nH]1 |  | > 100 µM |  | > 100 µM |  | > 100 µM |  | > 87 µM | 32.9 µM |  | > 31.2 µM |  | > 100 µM |  | > 89.1 µM |  | > 95.4 µM |  | > 100 µM | 
COc1ccc(C(=O)c2cc(C)c(OC)c(C)c2)c(OC)c1NC(C)=O | 0.0776 µM | > 100 µM | 0.526 µM | > 100 µM | 2.4 µM | > 100 µM | 0.0483 µM | > 100 µM | > 100 µM | 0.309 µM | 1.37 µM | 0.239 µM | > 100 µM | 0.419 µM | > 100 µM | 0.0715 µM | > 100 µM | 0.0639 µM | > 100 µM | 0.046 µM
CS(=O)(=O)c1ccc(Nc2nc(N[C@H]3CCCC[C@H]3N)nc3cc[nH]c(=O)c23)cc1 | 2.46 µM | > 100 µM | 0.857 µM | 6.7 µM | 1.24 µM | > 100 µM | 2.03 µM | 10.4 µM | 5.84 µM | 0.533 µM | 6.6 µM | 3.02 µM | > 100 µM | 2.68 µM | 20.3 µM | 1.25 µM | 4.95 µM | 11.7 µM | 36.3 µM | 1.91 µM
CN=C1C=CC(=C(c2ccc(N(C)C)cc2)c2ccc(N(C)C)cc2)C=C1 | 0.286 µM | 1.09 µM | 0.201 µM | 1.04 µM | 0.256 µM | 7.57 µM | 0.274 µM | 1.71 µM | 0.473 µM | 0.217 µM | 0.519 µM | 0.0765 µM | 1.48 µM |  |  | 0.233 µM | 3.02 µM | 0.448 µM | 2.53 µM | 0.147 µM
CCN(CC)CCCC(C)Nc1cc(-c2cccc(OC(F)(F)F)c2)nc2ccc(N3CCCC3)cc12 (stereo not drawn) | 0.28 µM | > 49.5 µM | 0.0638 µM | 14.6 µM | 0.0564 µM | > 100 µM | 0.0782 µM | 13.6 µM | 11.9 µM | 0.0528 µM | 2.06 µM | 0.0806 µM | > 48.2 µM | 0.0626 µM | 34.3 µM | 0.0337 µM | 3.22 µM | 0.0422 µM | 31.5 µM | 0.0404 µM
Cc1cc(-c2c(F)cc3c4nn([C@H]5CC[C@@H](N(C)C)CC5)c(=O)c-4cn(C4CC4)c3c2F)cc(C)n1 |  | > 100 µM |  | 0.571 µM | 0.0033 µM |  |  | 8.71 µM | 0.717 µM | 0.00306 µM | 0.0322 µM and 0.235 µM | 0.018 µM | 0.0784 µM and 0.455 µM |  | 0.808 µM |  | 6.25 µM | 0.185 µM | 0.346 µM and 1.11 µM | 
S=C1Cc2c(-c3ccc(Br)cc3)cc(-c3ccccc3)nc2-c2ccccc2N1 |  | 23.3 µM |  | 12.6 µM |  | 11.2 µM |  | 10.3 µM | 5.4 µM |  | > 100 µM |  | 3.01 µM |  | 3.02 µM |  | 3.84 µM |  | 3.65 µM | 
CN(C)CC1CC/C(=C\c2ccc3c(c2)OCO3)C1=O (stereo not drawn) |  | 27.1 µM |  | 3.72 µM |  | 19.7 µM |  | 19.7 µM | 56.8 µM |  | 11 µM |  | > 70.1 µM |  | 19.2 µM |  | > 100 µM |  | 23.1 µM | 
CNCCCNc1nc2ccccc2c2c(=O)c3cc(OC)ccc3sc12 | 1.74 µM | 3.45 µM | 1.57 µM | 2.93 µM | 2.39 µM | 6.08 µM | 1.78 µM | 3.23 µM | 3.34 µM | 1.95 µM | 4.04 µM | 1.76 µM | 3.76 µM | 2.17 µM | 5.34 µM | 1.94 µM | 4.77 µM | 1.66 µM | 3.17 µM | 1.82 µM
Cc1c(C#N)cccc1[C@@H](C)Nc1nnc(C)c2cnc(N3CCOCC3)cc12 | 27.8 µM | > 100 µM | 27.5 µM | > 100 µM | 39.2 µM | > 100 µM | 27.7 µM | > 100 µM | > 100 µM | 22.8 µM | 63.7 µM | 43.4 µM | > 100 µM | 38.5 µM | > 100 µM | 12.2 µM | 66.6 µM | 0.7 µM | > 100 µM | 21.9 µM
CC(=O)OC12C=C(C)C(C(C)C1)C1C(=O)N(CCN3CCCCC3)C(=O)C12 (stereo not drawn) | > 50 µM | > 50 µM | > 50 µM | > 50 µM | > 50 µM | > 50 µM | > 50 µM | > 50 µM | > 50 µM | > 50 µM | > 50 µM | > 50 µM | > 50 µM | > 50 µM | > 50 µM | 48 µM | > 50 µM | > 50 µM | > 50 µM | > 50 µM
COc1cc(OC)cc(C2C3=C(COC3=O)Nc3cc(OC)ccc32)c1 (stereo not drawn) | < 0.01 µM | > 42.3 µM | < 0.01 µM | > 44.1 µM | < 0.01 µM | > 100 µM | < 0.01 µM | 0.0486 µM | 28.2 µM | < 0.01 µM | < 0.0186 µM | < 0.01 µM | 21.7 µM | < 0.0143 µM | > 37.5 µM | < 0.01 µM | > 64.3 µM | < 0.01 µM | > 100 µM | < 0.01 µM
COc1ccccc1S(=O)(=O)Nc1ccc2c3c(cc(CCC(=O)NCCCCNc4cccc5c4C(=O)N(C4CCC(=O)NC4=O)C5=O)cc13)C(=O)N2C (stereo not drawn) | 0.204 µM | > 100 µM | 3.47 µM | > 100 µM | 0.0315 µM |  | 5.68 µM | > 100 µM | > 100 µM | 0.0273 µM |  | 0.416 µM | 4.94 µM | 0.346 µM | > 100 µM | 0.186 µM | 1.1 µM | 2.31 µM | > 100 µM | 3.75 µM
